Source: US10736932B2, “Small molecule Ras inhibitors” (Ohio State Innovation Foundation, priority 2014, dated 2020)
Square brackets hold non-standard residues; d marks the D form. Side chains are listed from the residue outwards. Peptide text beside a SMILES is read from it. * marks the point of attachment. Phe(3,4-F2) = N[C@@H](Cc1ccc(F)c(F)c1)C(=O)O; Phe(4-F) = N[C@@H](Cc1ccc(F)cc1)C(=O)O; 2Nal = N[C@@H](Cc1ccc2ccccc2c1)C(=O)O; d2Nal = N[C@H](Cc1ccc2ccccc2c1)C(=O)O; Tle = CC(C)(C)[C@H](N)C(=O)O; X5 = O=C(c1cc(F)cc(Br)c1)*; dNle = CCCC[C@@H](N)C(=O)O; X3 = N#Cc1ccc(C(=O)*)cc1; Dap = NC[C@H](N)C(=O)O

Target: T1, K-Ras / Raf RBD interaction (Homo sapiens, UniProt P01116, G12V)
T1 construct: The G12V mutant K-Ras (amino acids 1-185) was recombinantly fused; GST (N, cleaved yes); made in house; host or cells: Escherichia coli BL21
Assay: HTRF assay, inhibition of Ras-Raf RBD interaction;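 further: HTRF signal read after overnight incubation of the assay plate at 4 °C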
Type: binding
Conditions: not given

| SMILES | IC50 [µM] |
| --- | --- |
| CCCC[C@H]1NC(=O)[C@H](Cc2ccc(F)cc2)NC(=O)[C@H](CCCNC(=N)N)NC(=O)[C@@H](Cc2ccc3ccccc3c2)NC(=O)[C@H](CCCNC(=N)N)NC(=O)[C@H](C)NC(=O)[C@H](CCC(=O)N[C@@H](CCCCN)C(N)=O)NC(=O)[C@@H](C)NC(=O)[C@H]([C@@H](C)O)NC(=O)[C@H](Cc2c[nH]c3ccccc23)NC(=O)[C@@H](CO)NC1=O [Cyclorasin 9A(Arg1A), (Ala-Arg-nal-Arg-Fpa-nle-ser-Trp-Thr-ala-Gln)-Lys] (cyclo(AR[d2Nal]R[Phe(4-F)][dNle][dS]WT[dA]E([Lys-NH2]))) | 1.3 ± 0.2 |
| CC(C)C[C@H]1NC(=O)[C@H](Cc2ccc(F)cc2)NC(=O)[C@H](CCCNC(=N)N)NC(=O)[C@@H](Cc2ccc3ccccc3c2)NC(=O)[C@H](CCCNC(=N)N)NC(=O)[C@H](CCCNC(=N)N)NC(=O)[C@@H](CCCNC(=N)N)NC(=O)[C@@H](C)NC(=O)[C@H]([C@@H](C)O)NC(=O)[C@H](Cc2c[nH]c3ccccc23)NC(=O)[C@H](CCC(N)=O)NC1=O [Cyclorasin 9A10, (Trp-Thr-ala-arg-Arg-Arg-nal-Arg-Fpa-leu-Gln)] (cyclo(WT[dA][dR]RR[d2Nal]R[Phe(4-F)][dL]Q)) | 0.24 ± 0.13 |
| CCCC[C@H]1NC(=O)[C@H](Cc2ccc(F)cc2)NC(=O)[C@H](CCCNC(=N)N)NC(=O)[C@@H](Cc2ccc3ccccc3c2)NC(=O)[C@H](CCCNC(=N)N)NC(=O)[C@H](CCCNC(=N)N)NC(=O)[C@@H](CCCNC(=N)N)NC(=O)[C@@H](C(C)C)NC(=O)[C@H]([C@@H](C)O)NC(=O)[C@H](Cc2c[nH]c3ccccc23)NC(=O)[C@H](CCC(N)=O)NC1=O [Cyclorasin 9A14, (Trp-Thr-val-arg-Arg-Arg-nal-Arg-Fpa-nle-Gln)] (cyclo(WT[dV][dR]RR[d2Nal]R[Phe(4-F)][dNle]Q)) | 0.13 ± 0.07 |
| CCCC[C@H]1NC(=O)[C@H](Cc2ccc(F)cc2)NC(=O)[C@H](CCCNC(=N)N)NC(=O)[C@H](Cc2ccc3ccccc3c2)NC(=O)[C@H](CCCNC(=N)N)NC(=O)[C@H](CCCNC(=N)N)NC(=O)[C@H](CCCNC(=N)N)NC(=O)[C@@H](C)NC(=O)[C@H]([C@@H](C)O)NC(=O)[C@H](Cc2c[nH]c3ccccc23)NC(=O)[C@H](CCC(N)=O)NC1=O [Cyclorasin 9A55, (Trp-Thr-ala-Arg-Arg-Arg-Nal-Arg-Fpa-nle-Gln)] (cyclo(WT[dA]RRR[2Nal]R[Phe(4-F)][dNle]Q)) | 0.94 ± 0.28 |
| CCCC[C@H]1NC(=O)[C@H](Cc2ccc(F)cc2)NC(=O)[C@H](CCCNC(=N)N)NC(=O)[C@@H](Cc2ccc3ccccc3c2)NC(=O)[C@H](CCCNC(=N)N)NC(=O)[C@H](CCCNC(=N)N)NC(=O)[C@@H](CCCNC(=N)N)NC(=O)[C@@H](C(C)C)NC(=O)[C@H](C(C)(C)C)NC(=O)[C@H](Cc2c[nH]c3ccccc23)NC(=O)[C@H](CCC(N)=O)NC1=O [Cyclorasin 9A53, (Trp-Tle-val-arg-Arg-Arg-nal-Arg-Fpa-nle-Gln)] (cyclo(W[Tle][dV][dR]RR[d2Nal]R[Phe(4-F)][dNle]Q)) | 0.027 ± 0.011 |
| CCCC[C@H]1NC(=O)[C@H](Cc2ccc(F)cc2)NC(=O)[C@H](CCCNC(=N)N)NC(=O)[C@@H](Cc2ccc3ccccc3c2)NC(=O)[C@H](CCCNC(=N)N)NC(=O)[C@H](CCCNC(=N)N)NC(=O)[C@H](CCCNC(=N)N)NC(=O)[C@@H](C)NC(=O)[C@H]([C@@H](C)O)NC(=O)[C@H](Cc2ccc3ccccc3c2)NC(=O)[C@H](CCC(N)=O)NC1=O [Cyclorasin 9A49, (Nal-Thr-ala-Arg-Arg-Arg-nal-Arg-Fpa-nle-Gln)] (cyclo([2Nal]T[dA]RRR[d2Nal]R[Phe(4-F)][dNle]Q)) | 0.1 ± 0.01 |
| CCCC[C@H]1NC(=O)[C@H](CNC(=O)c2ccc(C#N)cc2)NC(=O)[C@H](CCCNC(=N)N)NC(=O)[C@@H](Cc2ccc3ccccc3c2)NC(=O)[C@H](CCCNC(=N)N)NC(=O)[C@H](CCCNC(=N)N)NC(=O)[C@H](CCCNC(=N)N)NC(=O)[C@@H](C)NC(=O)[C@H](C(C)(C)C)NC(=O)[C@H](Cc2c[nH]c3ccccc23)NC(=O)[C@H](CCC(N)=O)NC1=O [Cyclorasin 9A44c, (Trp-Tle-ala-Arg-Arg-Arg-nal-Arg-Dap(4-cyanobenzoyl)-nle-Gln)] (cyclo(W[Tle][dA]RRR[d2Nal]R[Dap](X3)[dNle]Q)) | 0.15 ± 0.05 |
| CCCC[C@H]1NC(=O)[C@H](CNC(=O)c2cc(F)cc(Br)c2)NC(=O)[C@H](CCCNC(=N)N)NC(=O)[C@@H](Cc2ccc3ccccc3c2)NC(=O)[C@H](CCCNC(=N)N)NC(=O)[C@H](CCCNC(=N)N)NC(=O)[C@H](CCCNC(=N)N)NC(=O)[C@@H](C)NC(=O)[C@H]([C@@H](C)O)NC(=O)[C@H](Cc2c[nH]c3ccccc23)NC(=O)[C@H](CCC(N)=O)NC1=O [Cyclorasin 9A44a, (Trp-Thr-ala-Arg-Arg-Arg-nal-Arg-Dap(3-bromo-5-fluorobenzoyl)-nle-Gln)] (cyclo(WT[dA]RRR[d2Nal]R[Dap](X5)[dNle]Q)) | 0.083 ± 0.008 |
| CCCC[C@H]1NC(=O)[C@H](Cc2ccc(F)c(F)c2)NC(=O)[C@H](CCCNC(=N)N)NC(=O)[C@@H](Cc2ccc3ccccc3c2)NC(=O)[C@H](CCCNC(=N)N)NC(=O)[C@H](CCCNC(=N)N)NC(=O)[C@@H](CCCNC(=N)N)NC(=O)[C@@H](C(C)C)NC(=O)[C@H](C(C)(C)C)NC(=O)[C@H](Cc2c[nH]c3ccccc23)NC(=O)[C@H](CCC(N)=O)NC1=O [Cyclorasin 9A51, (Trp-Tle-val-arg-Arg-Arg-nal-Arg-Phe(3,4-difluoro)-nle-Gln)] (cyclo(W[Tle][dV][dR]RR[d2Nal]R[Phe(3,4-F2)][dNle]Q)) | 0.015 |

Same assay, conditions: relative to parent 9A5/9A6

| SMILES | increase in Ras binding affinity upon residue substitution [fold] |
| --- | --- |
| CCCC[C@H]1NC(=O)[C@H](Cc2ccc(F)cc2)NC(=O)[C@H](CCCNC(=N)N)NC(=O)[C@@H](Cc2ccc3ccccc3c2)NC(=O)[C@H](CCCNC(=N)N)NC(=O)[C@H](CCCNC(=N)N)NC(=O)[C@@H](CCCNC(=N)N)NC(=O)[C@@H](C(C)C)NC(=O)[C@H]([C@@H](C)O)NC(=O)[C@H](Cc2c[nH]c3ccccc23)NC(=O)[C@H](CCC(N)=O)NC1=O [Cyclorasin 9A14, (Trp-Thr-val-arg-Arg-Arg-nal-Arg-Fpa-nle-Gln)] (cyclo(WT[dV][dR]RR[d2Nal]R[Phe(4-F)][dNle]Q)) | ~2 |
